Reference: patent publication US20250066319A1, “NOVEL ACID ADDITION SALT AND CRYSTALLINE FORM OF (2R, 3S)-2-(3-(4,5-DICHLORO-1H-BENZO[d]IMIDAZOL-1-YL)PROPYL)PIPERIDIN-3-OL” (Daewoong Pharmaceutical Co., Ltd., priority 2021, published 2025)
Counter-ions that a name gives are not always drawn.

What was measured:
Format in all cases: physicochemical
[1] = Hygroscopicity test (weight change in desiccators of constant relative humidity); set-up: scale not given here; settings: room temperature, one day
Description: The hygroscopicity tests of the acid addition salts prepared in Examples 1-1 to 1-6 and Comparative Example 1 were performed.
After one day, the change in weight was measured, then transferred to another desiccator and the previous experiment was repeated. At this time, for sorption analysis, the weight change was measured by moving the sample from a low-humidity desiccator to a high-humidity desiccator, and for desorption analysis, the weight change was measured by transferring the sample from a high-humidity desiccator with high humidity to a low-humidity desiccator.

[2] = Stability confirmation: severe test with respect to temperature, HPLC peak area of main component; settings: 60° C., relative humidity less than 10%
Description: (§1) The acid addition salts prepared in some Examples and Comparative Examples were subjected to stability tests against high temperature and high humidity.
Specifically, the severe tests with respect to temperature were performed by placing 50 mg of a sample in a vial, closing the lid, and then measuring the content of impurities using HPLC (Azura, KNAUER, P6.1 1 L, DAD 6.1 L) after 1 week, 2 weeks, 4 weeks, and 8 weeks while storing in a chamber at 60° C. and a relative humidity of less than 10%.
(§2) At a fixed time after the start of the test, one vial or beaker was taken out from each time point (the number of samples per test: n=1), and impurities were analyzed using HPLC under the conditions shown in Table 3 below. Then, the peak area was determined through integration for all the detected peaks, and then the relative peak area (%) for the main component was calculated and expressed as an average value.

[3] = Stability confirmation: severe test with respect to moisture, HPLC peak area of main component; settings: 93% RH, open beaker
Description: as §1
And, the severe tests with respect to moisture were performed by placing 50 mg of a sample in a 10 ml beaker, and measuring the content of impurities using HPLC (Azura, KNAUER, P6.1 1 L, DAD 6.1 L) after 1 week, 2 weeks, 4 weeks, and 8 weeks while storing the sample in a 93% RH desiccator in a state that the lid was not closed so that the sample has sufficient contact with the moisture in the air.
as §2

[4] = Differential scanning calorimetry analysis after severe test with respect to temperature; settings: high temperature condition (60° C.), 1 week and 8 weeks; Dihydrochloride
Description: For (2R,3S)-2-(3-(4,5-dichloro-1H-benzo[d]imidazol-1-yl)propyl)piperidin-3-ol monohydrochloride prepared in Example 1-1 and (2R,3S)-2-(3-(4,5-dichloro-1H-benzo[d]imidazol-1-yl)propyl)piperidin-3-ol dihydrochloride prepared in Comparative Example 1, each beaker was taken out 1 week and 8 weeks after the start of the test from the desiccator where the severe tests with respect to temperature were in progress, and the differential scanning calorimetry analysis was performed. At this time, the differential scanning calorimetry analysis was performed using a differential scanning calorimeter (DSC Q20, manufactured by TA Instruments) in a tightly closed pan under nitrogen purge at a scan rate of 10° C./min while raising the temperature from 20° C. to 300° C.

Molecule | weight change, desorption ([1]; 11% RH) | weight change, desorption ([1]; 33% RH) | weight change, desorption ([1]; 54% RH) | weight change, desorption ([1]; 75% RH) | weight change, sorption ([1]; 11% RH) | weight change, sorption ([1]; 33% RH) | weight change, sorption ([1]; 54% RH) | weight change, sorption ([1]; 75% RH) | weight change, sorption ([1]; 93% RH) | relative peak area for the main component (HPLC) ([2]; after 1 week) | relative peak area for the main component (HPLC) ([2]; after 2 weeks) | relative peak area for the main component (HPLC) ([2]; after 4 weeks) | relative peak area for the main component (HPLC) ([2]; after 8 weeks) | relative peak area for the main component (HPLC) ([2]; initial) | relative peak area for the main component (HPLC) ([3]; after 1 week) | relative peak area for the main component (HPLC) ([3]; after 2 weeks) | relative peak area for the main component (HPLC) ([3]; after 4 weeks) | relative peak area for the main component (HPLC) ([3]; after 8 weeks) | relative peak area for the main component (HPLC) ([3]; initial) | also measured
O[C@H]1CCCN[C@@H]1CCCn1cnc2c(Cl)c(Cl)ccc21 [Comparative Example 1, (2R,3S)-2-(3-(4,5-dichloro-1H-benzo[d]imidazol-1-yl)propyl)piperidin-3-ol Dihydrochloride, reference compound] |  |  |  |  |  |  |  |  |  |  |  |  |  |  |  |  |  |  |  | weight change, desorption ([1]; 11% RH, Dihydrochloride): 102.9; weight change, desorption ([1]; 33% RH, Dihydrochloride): 103.9; weight change, desorption ([1]; 54% RH, Dihydrochloride): 104.7; weight change, desorption ([1]; 75% RH, Dihydrochloride): 105.4; weight change, sorption ([1]; 33% RH, Dihydrochloride): 100.9; weight change, sorption ([1]; 54% RH, Dihydrochloride): 108; weight change, sorption ([1]; 75% RH, Dihydrochloride): 105.4; weight change, sorption ([1]; 93% RH, Dihydrochloride): 128; relative peak area for the main component (HPLC) ([2]; after 1 week, Dihydrochloride): 99.7%; relative peak area for the main component (HPLC) ([2]; after 2 weeks, Dihydrochloride): 99.7%; relative peak area for the main component (HPLC) ([2]; after 4 weeks, Dihydrochloride): 99.8%; relative peak area for the main component (HPLC) ([2]; after 8 weeks, Dihydrochloride): 99.7%; relative peak area for the main component (HPLC) ([2]; initial, Dihydrochloride): 99.6%; relative peak area for the main component (HPLC) ([3]; after 1 week, Dihydrochloride): 99.7%; relative peak area for the main component (HPLC) ([3]; after 2 weeks, Dihydrochloride): 99.7%; relative peak area for the main component (HPLC) ([3]; after 4 weeks, Dihydrochloride): 99.7%; relative peak area for the main component (HPLC) ([3]; after 8 weeks, Dihydrochloride): 99.7%; relative peak area for the main component (HPLC) ([3]; initial, Dihydrochloride): 99.6%; change in differential scanning calorimetry analysis pattern [4]: shows a change in the differential scanning calorimetry analysis pattern
O[C@H]1CCCN[C@@H]1CCCn1cnc2c(Cl)c(Cl)ccc21 [Example 1-2, (2R,3S)-2-(3-(4,5-dichloro-1H-benzo[d]imidazol-1-yl)propyl)piperidin-3-ol Dioxalate I] | 100 | 101.6 | 102 | 102.9 | 100 | 101.1 | 101.8 | 102.9 | 105.6 | 99.9% | 99.8% | 99.7% | 99.8% | 99.8% | 99.3% | 99.7% | 99.8% | 99.8% | 99.8% | 
O[C@H]1CCCN[C@@H]1CCCn1cnc2c(Cl)c(Cl)ccc21 [Example 1-4, (2R,3S)-2-(3-(4,5-dichloro-1H-benzo[d]imidazol-1-yl)propyl)piperidin-3-ol Hemi-Oxalate] | 101.0 | 101.0 | 101.9 | 103.2 | 100 | 101.0 | 101.6 | 101.9 | 105.4 |  |  |  |  |  |  |  |  |  |  | 
O[C@H]1CCCN[C@@H]1CCCn1cnc2c(Cl)c(Cl)ccc21 [Example 1-5, (2R,3S)-2-(3-(4,5-dichloro-1H-benzo[d]imidazol-1-yl)propyl)piperidin-3-ol Hemi-Maleate] | 99.5 | 99.8 | 99.8 | 100.5 | 100 | 100 | 100.7 | 100.9 | 101.6 |  | 99.8% | 99.7% | 99.9% | 99.8% |  | 99.8% | 99.8% | 99.9% | 99.8% | 
(2R,3S)-2-(3-(4,5-dichloro-1H-benzo[d]imidazol-1-yl)propyl)piperidin-3-ol Dioxalate II [Example 1-3] | 100 | 100 | 100.2 | 100.8 | 100 | 100 | 100 | 101.3 | 101.3 | 99.9% | 99.8% | 99.8% | 99.9% | 99.8% | 99.7% | 99.8% | 99.9% | 99.9% | 99.8% | 
